Source: patent US4478844A, “Bradycardiac or analgesic 2-(N-(thienyl-2-methyl)-N-(2-fluoro-6-methyl-phenyl)-amino)-2-imidazolin e and salts thereof” (Boehringer Ingelheim KG, priority 1979, dated 1984)

Key:
mouse [1] = test: Analgesic activity, writhing test (mouse); type: in vivo
Method: (§1) The end product of Example 1, i.e. 2-[N-(2-fluoro-6-bromo-phenyl)-N-(thienyl-2-methyl)-amino]-2-imidazoline (A), and [N-2,6-dibromo-phenyl)-N-(thienyl-2-methyl)-amino]-2-imidazoline (B), disclosed in column 2, lines 47-48, of U.S. Pat. No. 3,937,717, were tested for analgesic activity and locomotion-inhibiting activity by the standard test methods described in the following literature references:
Analgesic activity: Ph. Linee, J. Pharmacol. (Paris) 3,4 513-515 (1972). Writhing test.

mouse [2] = test: Locomotion-inhibiting activity (mouse); type: in vivo; conditions: sc, read-out: Locomotion inhibition (mouse) ED50 s.c.
Method: as §1
Locomotion--inhibiting activity: K. Stockhaus et al., Committee on Problems of Drug Dependence (1970) 6890-6898 National Academy of Sciences.

[3] = po, read-out: Writhing test (mouse) ED50 p.o.
[4] = sc, read-out: Writhing test (mouse) ED50 s.c.

| Compound | ED50 (mouse [1]; [3]) | ED50 (mouse [1]; [4]) | ED50 (mouse [2]) |
| --- | --- | --- | --- |
| Brc1cccc(Br)c1N(Cc1cccs1)C1=NCCN1 [B] | 0.6 mg/kg | 0.3 mg/kg | 0.6 mg/kg |
| Fc1cccc(Br)c1N(Cc1cccs1)C1=NCCN1 [A, 2-[N-(2-fluoro-6-bromo-phenyl)-N-(thienyl-2-methyl)-amino]-2-imidazoline] | 0.28 mg/kg | 0.12 mg/kg | 0.13 mg/kg |
